For data set [1], the system named is gram-positive and gram-negative organisms. As to the kind of experiment: in vitro antibacterial tests. The data set is classed as cell-based.
The nature of data set [2]: animal tests of degradation in vivo.
The nature of data set [3]: absorption and blood levels by the oral route. Format: in vivo.
Data set [4] in a line: activity on oral administration. The data set is classed as in vivo.
The next data set concerns STAPH AUREUS 604. In words: Tube Dilution Assay, STAPH AUREUS 604. Format: cell-based. The note with it: Staphylococcus aureus; read-out: Tube Dilution Assay, gram positive, STAPH AUREUS 604.
The subject of a further data set is STAPH AUREUS 663. As to the kind of experiment: Tube Dilution Assay, STAPH AUREUS 663. The data set is classed as cell-based. Conditions: Staphylococcus aureus; read-out: Tube Dilution Assay, gram positive, STAPH AUREUS 663.
A further data set has as its system STAPH AUREUS 3452. As to the kind of experiment: Tube Dilution Assay, STAPH AUREUS 3452. Format: cell-based. Conditions: Staphylococcus aureus; read-out: Tube Dilution Assay, gram positive, STAPH AUREUS 3452.
Data set [5] concerns STAPH AUREUS 11127. As to the kind of experiment: Tube Dilution Assay, STAPH AUREUS 11127. Format: cell-based. The note with it: Staphylococcus aureus; read-out: Tube Dilution Assay, gram positive, STAPH AUREUS 11127.
Another data set relates to E. COLI 573. As to the kind of experiment: Tube Dilution Assay, E. COLI 573. The note with it: Escherichia coli; read-out: Tube Dilution Assay, gram negative, E. COLI 573. The data set is classed as cell-based.
In the next data set the test system is S. TYPHIMURIUM 804. As to the kind of experiment: Tube Dilution Assay, S. TYPHIMURIUM 804. Conditions: Salmonella enterica, read-out: Tube Dilution Assay, gram negative, S. TYPHIMURIUM 804. Format: cell-based.
The next data set concerns PR. MIRABILIS 431. As to the kind of experiment: Tube Dilution Assay, PR. MIRABILIS 431. The data set is classed as cell-based. The note with it: Proteus mirabilis; read-out: Tube Dilution Assay, gram negative, PR. MIRABILIS 431.
Data set [6] is described as follows: R.O.U.R.: recovery of the antibiotic from the urine of female rats following oral administration. Format: in vivo. Conditions: rat. The source says: *R.O.U.R. = % recovery of the antibiotic from the urine of female rats
following oral administration of the antibiotic.

Data set [7] relates to STAPH AUREUS 11127. In words: Mouse Protection, STAPH AUREUS 11127. Conditions: Staphylococcus aureus. The data set is classed as in vivo.

Three molecules from patent US3974152A, “3-Ethyl- and 3-(2'cyanoethyl)-cephalosporins” (Glaxo Laboratories Limited, priority 1970, dated 1976) can be followed below.

In brackets after ≈: the same amount, converted by molar mass.

A word on the ED50: it is the midpoint of the dose-response relation. Lower therefore signals an effect at a small dose.

On to `CCC1=C(C(=O)O)N2C(=O)[C@@H](NC(=O)[C@H](N)c3ccccc3)[C@H]2SC1` [Example 4(b), 7β-(D-2-Amino-2-phenylacetamido)-3-ethylceph-3-em-4-carboxylic acid], for which, in data set [1], the “activity against gram-positive and gram-negative organisms” value was “active against gram-positive and gram-negative organisms”. Also, in data set [2], the degradation in vivo result is “substantially resistant to degradation in vivo”. In [3], the “absorption by the oral route” value is recorded as “well absorbed” and the blood levels result was “good blood levels”. The “activity on oral administration” value in data set [4] is given as “appreciable level of activity”.
As to `N#CCCC1=C(C(=O)O)N2C(=O)[C@@H](NC(=O)Cc3cccs3)[C@H]2SC1` [2(c), 3-(2-Cyanoethyl)-7β-(2-thienylacetamido)ceph-3-em-4-carboxylic acid], the MIC with STAPH AUREUS 604 came to 1.25 µg/mL (≈ 3.31 µM); with STAPH AUREUS 663 it was 0.08 µg/mL (≈ 0.212 µM); with STAPH AUREUS 3452, 4 µg/mL (≈ 10.6 µM); with STAPH AUREUS 11127 [5], 1 µg/mL (≈ 2.65 µM); with E. COLI 573, 62 µg/mL (≈ 164 µM); in the data set with S. TYPHIMURIUM 804, 16 µg/mL (≈ 42.4 µM). The MIC in the data set with PR. MIRABILIS 431 came to 31 µg/mL (≈ 82.1 µM). Besides, in [6], the dose excreted was found to be 2.1%.
As for `CCC1=C(C(=O)O)N2C(=O)[C@@H](NC(=O)[C@H](N)c3ccccc3)[C@H]2SC1.O=C(O)C(F)(F)F` [1(d), 7β-(D-2-Amino-2-phenylacetamido)-3-ethylceph-3-em-4-carboxylic acid, Trifluoroacetic Acid Salt], the MIC in the data set with STAPH AUREUS 604 was determined as 1.6 µg/mL; with STAPH AUREUS 663 it was 0.3 µg/mL; in the data set with STAPH AUREUS 3452, 1.6 µg/mL; in the data set with STAPH AUREUS 11127 [5], 0.08 µg/mL; in the data set on E. COLI 573 it was 8 µg/mL; with S. TYPHIMURIUM 804, 16 µg/mL. Besides, in the data set on PR. MIRABILIS 431, the MIC was 16 µg/mL. In addition, in the data set on STAPH AUREUS 11127 [7], the ED50 is less than 6 mg/kg. This molecule displayed a dose excreted in [6] of 45%.
